# In publication PMC3100853 (2010):
# What was measured:
# [1] = test system: FB1 39 (DNA, aptamer) ATACCAGCTTATTCAATTAATCGCATTACCTTATACCAGCTTATTCAATTACGTCTGCACATACCAGCTTATTCAATTAGATAGTAAGTGCAATCT; assay: magnetic bead binding, fluorescence of eluted DNA; conditions: 100 mM NaCl, 5 mM KCl, 2 mM MgCl2, 1 mM CaCl2; 20 mM Tris pH 7.6, room temperature; immobilised compound; aptamer 1 nM to 1 μM
# [2] = test system: FB1 14 (DNA, aptamer) ATACCAGCTTATTCAATTCTATACGGAGTGGATATCGATCTGTAACGTGAGTGAGATAATGTGATGCATAGTCGTGGAGATAGTAAGTGCAATCT; assay: magnetic bead binding, percent DNA eluted (fluorescence); conditions: 100 mM NaCl, 5 mM KCl, 2 mM MgCl2, 1 mM CaCl2; 20 mM Tris pH 7.6, room temperature; immobilised compound; 9-15 pmol DNA, 2 × 10^8 beads
# [3] = test system: FB1 16 (DNA, aptamer) ATACCAGCTTATTCAATTCATCCAGTAACAAACACATAAGTAACGGCGATATGTCAAAGCGGTATCGGCTACAGATGAGATAGTAAGTGCAATCT; assay: as above; conditions: 100 mM NaCl, 5 mM KCl, 2 mM MgCl2, 1 mM CaCl2; 20 mM Tris pH 7.6, room temperature; immobilised compound; 9-15 pmol DNA, 2 × 10^8 beads
# [4] = test system: FB1 23 (DNA, aptamer) ATACCAGCTTATTCAATTGCGGATGCGTAAATGACGATAAACATAGATGGGGTATATCGCGATGCGACAGGGTGTAGATAGTAAGTGCAATCT; assay: as above; conditions: 100 mM NaCl, 5 mM KCl, 2 mM MgCl2, 1 mM CaCl2; 20 mM Tris pH 7.6, room temperature; immobilised compound; 9-15 pmol DNA, 2 × 10^8 beads
# [5] = test system: FB1 31 (DNA, aptamer) ATACCAGCTTATTCAATTCGGGGACGTGTATACCAGCTTATTCAATTCACAGTTATGTCCTATACCAGCTTATTCAATTAGATAGTAAGTGCAATCT; assay: as above; conditions: 100 mM NaCl, 5 mM KCl, 2 mM MgCl2, 1 mM CaCl2; 20 mM Tris pH 7.6, room temperature; immobilised compound; 9-15 pmol DNA, 2 × 10^8 beads
# [6] = test system: FB1 32 (DNA, aptamer) ATACCAGCTTATTCAATTAATGTACGATGTGTGGGCAACATGAGTATGTCGTGTGATATCTAGATGAGGTAGCGGTGGAGATAGTAAGTGCAATCT; assay: as above; conditions: 100 mM NaCl, 5 mM KCl, 2 mM MgCl2, 1 mM CaCl2; 20 mM Tris pH 7.6, room temperature; immobilised compound; 9-15 pmol DNA, 2 × 10^8 beads
compound,measurement,setting,value
CCCC[C@@H](C)[C@@H](OC(=O)C[C@@H](CC(=O)O)C(=O)O)[C@H](C[C@@H](C)C[C@H](O)CCCC[C@@H](O)C[C@H](O)[C@H](C)N)OC(=O)C[C@@H](CC(=O)O)C(=O)O,KD,[1],100 ± 30 nM
same,binding,[2],yes
same,binding,[3],yes
same,binding,[4],yes
same,binding,[5],yes
same,binding,[6],yes
